Experimental findings from patent US8969542B2, “HPV polyepitope constructs and uses thereof” (priority 2007, dated 2015) are described below.

For assay [1], the system named is CD8+ spleen cells of HLA transgenic mice (HLA-A01/Kb, F1 HLA-A02/KbxBalb/c, HLA-A11/Kb, HLA-A24/Kb). The assay can be described thus: Immunogenicity after HPV DNA construct immunization, direct ex vivo IFNγ ELISPOT. The format is in vivo, mouse. Conditions: for ICCG6138 SFC/10^6 cells Delta / ICCG6138 SFC/10^6 cells Ratio: immunization with DNA construct ICCG 6138; for ICCG6138 SFC/10^6 cells Delta / ICCG6137 SFC/10^6 cells Delta: HLA transgenic mice (HLA-A01/A02/A11/A24), CD8+ cells restimulated with WT peptide 10 μg/mL; for ICCG6138 SFC/10^6 cells Delta / ICCG6138 SFC/10^6 cells Ratio / ICCG6137 SFC/10^6 cells Delta / ICCG6137 SFC/10^6 cells Ratio: IFNγ ELISPOT; for ICCG6138 SFC/10^6 cells Ratio / ICCG6137 SFC/10^6 cells Ratio: HLA transgenic mice, response ratio, WT peptide 10 μg/mL; for ICCG6137 SFC/10^6 cells Delta / ICCG6137 SFC/10^6 cells Ratio: immunization with DNA construct ICCG 6137. On the procedure:
The immunogenicity of HPV HLA class I-restricted epitopes encoded in the DNA constructs was tested in the relevant HLA transgenic mice. […] To ensure an equal distribution of mice between different groups, a randomisation procedure based on body weight was performed. Female and male mice (age between 8 and 24 weeks) were ranked by body weight, extreme light or heavy animals were excluded. The remaining animals were grouped by sequentially assigning animals for the 2 experiments.
Mice were pre-treated with cardiotoxin (Sigma, C9759) on day −4 by bilateral intramuscular injection of 100 μl (2×50 μl) of a 10 μM cardiotoxin solution. Four days later, all mice were immunised with 100 μg HPV-DNA plasmid (diluted to 1 mg/ml in PBS) by bilateral injection of 50 μg in the m. tibialis anterior. […]
(§1) Mice were euthanized and spleen cells (SPC) were isolated 13 days after immunization. […] Spleen cells of DNA- and peptide-immunized HLA-A11/Kb mice were analyzed individually. SPC of all negative control mice were pooled per 2 mice, resulting in 3 data points for each peptide tested.
(§2) A direct ex vivo IFNγ ELISPOT assay was used as surrogate CTL readout. Basically, purified CD8+ cells were incubated with the individual HPV-specific HLA-restricted peptides (10 μg/mL) loaded on the appropriate antigen presenting cells (APC), in anti-mouse IFNγ antibody-coated ELISPOT plates. […] After 20 h incubation, IFNγ-producing cells were visualized by further developing the plates with biotinylated anti-mouse IFNγ antibody, streptavidin-HRP and AEC as substrate.
(§3) Some of the CTL epitopes included in the DNA constructs are analoged sequences of the wild type viral epitopes. For these particular epitopes, only the wild type sequences were used as in vitro stimulus for CTL readout.

Assay [2] shares this test system. The assay can be described thus: Immunogenicity after peptide pool/IFA immunization, direct ex vivo IFNγ ELISPOT. Type of assay: in vivo, mouse. To be noted: for Delta SFC/10^6 cells / Ratio: Peptide Pool; for Peptide Pool SFC/10^6 cells Delta / Peptide Pool SFC/10^6 cells Ratio: immunization with pool of peptides emulsified in IFA, IFNγ ELISPOT; for Peptide Pool SFC/10^6 cells Delta: HLA transgenic mice (HLA-A01/A02/A11/A24), CD8+ cells restimulated with WT peptide 10 μg/mL; for Peptide Pool SFC/10^6 cells Ratio: HLA transgenic mice, response ratio, WT peptide 10 μg/mL. On the procedure: CTL binding epitopes were evaluated for their immunogenicity in different HLA transgenic mice. To this, a single immunization with CTL peptide pools together with a common HTL epitope emulsified in IFA was performed and up to 14 days later, CD8+ spleen cells were isolated and evaluated for epitope specificity using a direct ex vivo IFNγ ELISPOT assay.
Peptides were dissolved in DMSO at a concentration of 10 mg/mL. For each of the 4 DNA constructs, the corresponding HLA-restricted peptides were pooled per HLA type (5 to 7 CTL peptides/pool). A known HTL peptide ([…]) was added and the peptide pools were diluted in PBS to the required peptide concentration (i.e. 25 μg of each CTL peptide and 120 μg HTL peptide in 50 μl). After adding an equal volume of IFA (Pierce, lot DG56079), the mixture was emulsified by forcing it through a small orifice. Mice were immunized subcutaneously at the base of the tail with 50 μl peptide/IFA mixture.
As negative control for the peptide-immunized mice, 18 mice (in total) were injected with a PBS/IFA mixture.
as §1, §2, §3

Where [3] appears, read: HLA-A01 epitopes, HLA-A01/Kb mice, DNA construct ICCG6150, median of mouse pools.
Where [4] appears, read: HLA-A01 epitopes, HLA-A01/Kb mice, median of mouse pools.
Where [5] appears, read: HLA-A02 epitopes, F1 HLA-A02/KbxBalb/c mice, DNA construct ICCG6149, median of mouse pools.
Where [6] appears, read: HLA-A02 epitopes, F1 HLA-A02/KbxBalb/c mice, DNA construct ICCG6150, median of mouse pools.
The mark [7] stands for this setting: HLA-A02 epitopes, F1 HLA-A02/KbxBalb/c mice, median of mouse pools.
The mark [8] stands for this setting: HLA-A11 epitopes, HLA-A11/Kb mice, DNA construct ICCG6149, median.
Where [9] appears, read: HLA-A11 epitopes, HLA-A11/Kb mice, DNA construct ICCG6150, median.
Setting [10] is: HLA-A11 epitopes, HLA-A11/Kb mice, median.
[11] abbreviates: HLA-A24 epitopes, HLA-A24/Kb mice, DNA construct ICCG6149, median of mouse pools.
Setting [12] is: HLA-A24 epitopes, HLA-A24/Kb mice, DNA construct ICCG6150, median of mouse pools.
The mark [13] stands for this setting: HLA-A24 epitopes, HLA-A24/Kb mice, median of mouse pools.

Turning to “132 (ISEYRHYCY; Human papillomavirus type 16) [compound 132]”, in assay [1] (setting [3]), the “Delta SFC/10^6 cells” value came to 3 SFC/10^6 cells and the Ratio was found to be 1.1. Moreover, in assay [2] (setting [4]), the “Delta SFC/10^6 cells” value was 2 SFC/10^6 cells and the Ratio was 1.1.
For the substance “133 (YMLDLQPETT; Human papillomavirus type 16) [compound 133]”, the entries for the “Delta SFC/10^6 cells” value in assay [1] (setting [5]), in assay [1] (setting [6]) and in assay [2] (setting [7]) were 5 SFC/10^6 cells, 10 SFC/10^6 cells and 1 SFC/10^6 cells, respectively. Further, the Ratio worked out at 1.4 in assay [1] (setting [5]), 3.3 in assay [1] (setting [6]) and 1.0 in assay [2] (setting [7]).
With “134 (GTLGIVCPI; Human papillomavirus type 16) [compound 134]”, the entries for the “Delta SFC/10^6 cells” value in assay [1] (setting [5]), in assay [1] (setting [6]) and in assay [2] (setting [7]) were 1 SFC/10^6 cells, 3 SFC/10^6 cells and 55 SFC/10^6 cells, respectively. The Ratio in assay [1] (setting [5]) was 1.0; in assay [1] (setting [6]), 1.7; in assay [2] (setting [7]) it was 8.0.
“135 (TIHDIILECV; Human papillomavirus type 16) [compound 135]”: the “Delta SFC/10^6 cells” value was 562 SFC/10^6 cells in assay [1] (setting [5]), 358 SFC/10^6 cells in assay [1] (setting [6]) and 80 SFC/10^6 cells in assay [2] (setting [7]). For the same substance, the values for the Ratio in assay [1] (setting [5]), in assay [1] (setting [6]) and in assay [2] (setting [7]) were 86.7, 24.8 and 10.0, respectively.
On to “136 (KLTNTGLYNL; Human papillomavirus type 18) [compound 136]”, for which the “Delta SFC/10^6 cells” value is 6 SFC/10^6 cells in assay [1] (setting [5]), 20 SFC/10^6 cells in assay [1] (setting [6]) and 280 SFC/10^6 cells in assay [2] (setting [7]). Also, the Ratio stood at 2.0 in assay [1] (setting [5]), 2.7 in assay [1] (setting [6]) and 29.0 in assay [2] (setting [7]).
In the case of “137 (DSVYGDTLEK; Human papillomavirus type 18) [compound 137]”, the “Delta SFC/10^6 cells” value in assay [1] (setting [8]) was found to be 15 SFC/10^6 cells; in assay [1] (setting [9]), 1 SFC/10^6 cells; in assay [2] (setting [10]), 40 SFC/10^6 cells. Further, the Ratio was determined as 1.2 in assay [1] (setting [8]), 1.0 in assay [1] (setting [9]) and 1.1 in assay [2] (setting [10]).
In the case of “138 (FVVYRDSIPH; Human papillomavirus type 18) [compound 138]”, the “Delta SFC/10^6 cells” value was found to be 1 SFC/10^6 cells in assay [1] (setting [8]), 1 SFC/10^6 cells in assay [1] (setting [9]) and 110 SFC/10^6 cells in assay [2] (setting [10]). Besides, the Ratio in assay [1] (setting [8]) is recorded as 1.0; in assay [1] (setting [9]) it was 1.0; in assay [2] (setting [10]), 1.3.
In the case of “139 (CYSLYGTTL; Human papillomavirus type 16) [compound 139]”, the “Delta SFC/10^6 cells” value is listed as 3 SFC/10^6 cells in assay [1] (setting [11]), 1 SFC/10^6 cells in assay [1] (setting [12]) and 1 SFC/10^6 cells in assay [2] (setting [13]). Also, the Ratio in assay [1] (setting [11]), in assay [1] (setting [12]) and in assay [2] (setting [13]) was 1.0 throughout.
Regarding “140 (PYAVCDKCL; Human papillomavirus type 16) [compound 140]”, the “Delta SFC/10^6 cells” value was determined as 3 SFC/10^6 cells in assay [1] (setting [11]), 1 SFC/10^6 cells in assay [1] (setting [12]) and 150 SFC/10^6 cells in assay [2] (setting [13]). The Ratio in assay [1] (setting [11]) turned out to be 1.1; in assay [1] (setting [12]), 1.0; in assay [2] (setting [13]), 4.2.
As for “141 (RFHNIRGRW; Human papillomavirus type 16) [compound 141]”, the “Delta SFC/10^6 cells” value in assay [1] (setting [11]) was 3 SFC/10^6 cells; in assay [1] (setting [12]), 1 SFC/10^6 cells; in assay [2] (setting [13]), 205 SFC/10^6 cells. Besides, the figures for the Ratio in assay [1] (setting [11]), in assay [1] (setting [12]) and in assay [2] (setting [13]) were 1.1, 1.0 and 6.9, respectively.
Turning to “143 (LYNLLIRWL; Human papillomavirus type 18-derived epitope) [compound 143]”, the figures for the “Delta SFC/10^6 cells” value in assay [1] (setting [11]), in assay [1] (setting [12]) and in assay [2] (setting [13]) were 3 SFC/10^6 cells, 1 SFC/10^6 cells and 30 SFC/10^6 cells, respectively. Moreover, the Ratio amounted to 1.0 in assay [1] (setting [11]), 1.0 in assay [1] (setting [12]) and 1.5 in assay [2] (setting [13]).
Regarding “144 (LYGVSFTEL; Human papillomavirus type 16-derived epitope) [compound 144]”, the “Delta SFC/10^6 cells” value is on record as 3 SFC/10^6 cells in assay [1] (setting [11]), 1 SFC/10^6 cells in assay [1] (setting [12]) and 5 SFC/10^6 cells in assay [2] (setting [13]). Further, the Ratio is reported as 1.0 in assay [1] (setting [11]), 1.0 in assay [1] (setting [12]) and 1.1 in assay [2] (setting [13]).
For the substance “145 (CYSVYGTTL; Human papillomavirus type 16-derived epitope) [compound 145]”, the “Delta SFC/10^6 cells” value is 23 SFC/10^6 cells in assay [1] (setting [11]), 90 SFC/10^6 cells in assay [1] (setting [12]) and 55 SFC/10^6 cells in assay [2] (setting [13]). Also, the Ratio in assay [1] (setting [11]) amounted to 1.4; in assay [1] (setting [12]), 2.6; in assay [2] (setting [13]), 1.8.
For the substance “146 (QAEPDTSNY; Human papillomavirus type 31) [compound 146]”, in assay [1], the “ICCG6138 SFC/10^6 cells Delta” value amounted to 23 SFC/10^6 cells and the “ICCG6138 SFC/10^6 cells Ratio” value came out at 2.5. In addition, in assay [2], the “Peptide Pool SFC/10^6 cells Delta” value worked out at 4 SFC/10^6 cells and the “Peptide Pool SFC/10^6 cells Ratio” value is 1.2.
For “147 (LQDVSIACVY; Human papillomavirus type 45) [compound 147]”, in that order: 6 SFC/10^6 cells, 1.4, 1 SFC/10^6 cells and 1.0.
In the case of “148 (FAFTDLTIV; Human papillomavirus type 31) [compound 148]”, in assay [1], the “ICCG6137 SFC/10^6 cells Delta” value is 1 SFC/10^6 cells, the “ICCG6137 SFC/10^6 cells Ratio” value came to 1.0, the “ICCG6138 SFC/10^6 cells Delta” value came to 1 SFC/10^6 cells and the “ICCG6138 SFC/10^6 cells Ratio” value came out at 1.0. Besides, in assay [2], the “Peptide Pool SFC/10^6 cells Delta” value amounted to 100 SFC/10^6 cells and the “Peptide Pool SFC/10^6 cells Ratio” value is 8.5.
Take “149 (YQFAFKDLCI; Human papillomavirus type 45) [compound 149]”: in assay [1], the “ICCG6137 SFC/10^6 cells Delta” value stood at 3 SFC/10^6 cells, the “ICCG6137 SFC/10^6 cells Ratio” value is reported as 1.1, the “ICCG6138 SFC/10^6 cells Delta” value was 1 SFC/10^6 cells and the “ICCG6138 SFC/10^6 cells Ratio” value is on record as 1.0. Also, in assay [2], the “Peptide Pool SFC/10^6 cells Delta” value is 10 SFC/10^6 cells and the “Peptide Pool SFC/10^6 cells Ratio” value worked out at 2.0.
